Legend:
MCF7 = assay: NCI60 five-dose screen; format: cell-based; conditions: Homo sapiens; for CC50: read-out: LC50 (the source's name)
SR = assay: NCI60 five-dose screen; format: cell-based; conditions: Homo sapiens, leukemia
porcine brain tubulin = target: T1, porcine brain tubulin (Sus scrofa, UniProt P02550+P02554); assay: Tubulin polymerisation assay (fluorescence-based); format: biochemical; conditions: 10 µM, 37 °C
T1 construct: a solution containing porcine brain tubulin (2 mg mL^−1); purchased Cytoskeleton BK011P; host or cells: porcine brain (tissue-purified)
T1 sequence (P02554 whole entry): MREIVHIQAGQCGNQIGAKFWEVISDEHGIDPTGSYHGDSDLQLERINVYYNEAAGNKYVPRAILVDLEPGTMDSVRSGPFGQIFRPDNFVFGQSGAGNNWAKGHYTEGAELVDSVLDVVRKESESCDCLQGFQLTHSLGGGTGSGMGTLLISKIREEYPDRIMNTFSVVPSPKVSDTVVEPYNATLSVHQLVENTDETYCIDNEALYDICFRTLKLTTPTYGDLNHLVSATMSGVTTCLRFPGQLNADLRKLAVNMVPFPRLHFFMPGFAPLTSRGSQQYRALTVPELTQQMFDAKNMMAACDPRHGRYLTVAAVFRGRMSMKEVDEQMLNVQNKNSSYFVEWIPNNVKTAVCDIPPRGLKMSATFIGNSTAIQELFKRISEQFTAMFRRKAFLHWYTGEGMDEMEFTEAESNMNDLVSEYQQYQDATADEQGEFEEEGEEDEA
T1 sequence (P02550 whole entry): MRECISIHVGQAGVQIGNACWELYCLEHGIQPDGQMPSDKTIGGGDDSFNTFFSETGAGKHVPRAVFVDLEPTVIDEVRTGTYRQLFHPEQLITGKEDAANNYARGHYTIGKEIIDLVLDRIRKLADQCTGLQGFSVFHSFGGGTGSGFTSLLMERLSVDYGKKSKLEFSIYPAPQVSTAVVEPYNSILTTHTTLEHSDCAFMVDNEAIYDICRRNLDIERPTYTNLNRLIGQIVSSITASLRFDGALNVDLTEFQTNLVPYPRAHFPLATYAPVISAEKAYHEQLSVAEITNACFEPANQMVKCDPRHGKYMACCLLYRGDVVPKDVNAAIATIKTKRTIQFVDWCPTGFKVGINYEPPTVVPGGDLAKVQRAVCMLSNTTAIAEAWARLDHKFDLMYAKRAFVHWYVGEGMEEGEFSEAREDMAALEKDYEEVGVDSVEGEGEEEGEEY
Method: The tubulin polymerisation experimental protocol followed the method described in this literature.[28] The experimental was using fluorescence-based assay kit (Cytoskeleton, catalog no. BK011P). In Brief, 5 µL of test compounds was added to a 96-well plate, then mix with 50 µL of a solution containing porcine brain tubulin (2 mg mL^−1) in buffer with 20% glycerol and 1 mM GTP. A microplate reader (Varioskan™ LUX multimode microplate reader, Thermo Scientific™) was used to measure fluorescence intensity every 60 seconds for 60 minutes, with excitation at 360 nm and emission at 450 nm, maintained at 37 °C throughout the experiment.

MOLT-4 = assay: NCI60 five-dose screen; format: cell-based; conditions: Homo sapiens, MOLT-4, leukemia; for CC50: read-out: LC50 (the source's name)
[1] = tested on: T47D breast cancer cell line; assay: Cytotoxicity MTT assay, T47D; format: cell-based, human; conditions: for IC50: Homo sapiens, T47D, MTT, 48 hours
Method: (§1) T47D (ATCC HTB-133) was purchased from Biomedia (Thailand) Co., LTD. L929 (ATCC CCL-1) was received as a gift from Prof. Tanapat Palaga, Department of Microbiology, Faculty of Science, Chulalongkorn University, Bangkok, Thailand. The cells were cultured in Dulbecco's Modified Eagle's Medium (DMEM; Gibco) supplemented with 10% fetal bovine serum (FBS; HyClone), 100 U mL^−1 penicillin and 100 µg mL^−1 streptomycin (Gibco) at 37 °C with 5% CO2.
(§2) The antiproliferative activity was determined by MTT assay. Briefly, the cells were plated into a 96-well microplate at the density of 10 000 cells per well. The cells were allowed to grow overnight before treated with the solutions of compounds in culture medium at the designated concentrations for 48 hours. The medium was then replaced with MTT solution (0.5 mg mL^−1 MTT in culture medium) and incubated for 3 hours. A 100 µL of DMSO was used to dissolve the produced formazan. Absorbance at 570 nm was then measured using a microplate reader (Varioskan™ LUX multimode microplate reader, Thermo Scientific™). Percent viability was calculated relative to the vehicle control (DMSO).

M14 = assay: NCI60 five-dose screen; format: cell-based; conditions: Homo sapiens, M14, melanoma; for CC50: read-out: LC50 (the source's name)
U251 = assay: NCI60 five-dose screen; format: cell-based; conditions: Homo sapiens, U-251, U251, CNS cancer; for CC50: read-out: LC50 (the source's name)
SF-539 = assay: NCI60 five-dose screen; format: cell-based; conditions: Homo sapiens, SF-539, CNS cancer; for CC50: read-out: LC50 (the source's name)
[2] = Cytotoxicity MTT assay, L929; format: cell-based, mouse; conditions: mouse, L929 fibroblast cells; MTT, 48 hours
Method: as §1, §2

[3] = tested on: L929 normal mouse fibroblast cell line; assay: Cytotoxicity MTT assay, L929; format: cell-based; conditions: for Selectivity index (SI): IC50 (L929)/IC50 (T47D); for L929 cell survival / L929 toxicity at single concentration: 50 µM single concentration
Method: as §1, §2

Question: Which GI50 (MCF7; MCF7, breast cancer) does the source give for O=C(N/N=C/c1ccc[nH]1)c1[nH]c2ccc(Br)cc2c1-c1ccccc1 [Derivative 3a, (E)-N′-((1H-Pyrrol-2-yl)methylene)-5-bromo-3-phenyl-1H-indole-2-carbohydrazide] here?
Answer: 136 nM

Question: What about the CC50 (MCF7; MCF7, breast cancer) of the same compound?
Answer: 29100 nM

Question: And the GI50 (SR)?
Answer: 160 nM

Question: And the CC50 (SR; read-out: LC50 (the source's name))?
Answer: > 100000 nM

Question: What about the “RFU in tubulin polymerization assay” value (porcine brain tubulin) of the same compound?
Answer: ~55 arbitrary units

Question: What about the GI50 (MOLT-4) of the same compound?
Answer: 384 nM

Question: What about the CC50 (MOLT-4) of the same compound?
Answer: > 100000 nM

Question: What about the IC50 [1] of the same compound?
Answer: 1600 ± 1000 nM

Question: What about the GI50 (M14) of the same compound?
Answer: 304 nM

Question: What about the CC50 (M14) of the same compound?
Answer: 41400 nM

Question: And the GI50 (U251)?
Answer: 375 nM

Question: What about the CC50 (U251) of the same compound?
Answer: 12400 nM

Question: And the GI50 (SF-539)?
Answer: 202 nM

Question: What about the CC50 (SF-539) of the same compound?
Answer: 14600 nM

Question: And the IC50 at 48 h [2]?
Answer: 26300 ± 14500 nM

Question: And the “Selectivity index (SI)” value [3]?
Answer: 16.4

Question: Which GI50 (MCF7; MCF7, breast cancer) does the source give for O=C(N/N=C/c1cc[nH]c1)c1[nH]c2ccc(Br)cc2c1-c1ccccc1 [Derivative 3b, (E)-N′-((1H-Pyrrol-3-yl)methylene)-5-bromo-3-phenyl-1H-indole-2-carbohydrazide] here?
Answer: 436 nM

Question: What about the CC50 (MCF7; MCF7, breast cancer) of the same compound?
Answer: 49800 nM

Question: And the “tubulin inhibition” value (porcine brain tubulin)?
Answer: weak tubulin inhibitors

Question: What about the GI50 (MOLT-4) of the same compound?
Answer: 1520 nM

Question: And the CC50 (MOLT-4)?
Answer: > 100000 nM

Question: What about the “activity against T47D in two-dose screen” value ([1]; 10 µM and 50 µM) of the same compound?
Answer: weak activity

Question: And the GI50 (M14)?
Answer: 1580 nM

Question: What about the CC50 (M14) of the same compound?
Answer: 45800 nM

Question: And the GI50 (U251)?
Answer: 2080 nM

Question: And the CC50 (U251)?
Answer: 40800 nM

Question: What about the GI50 (SF-539) of the same compound?
Answer: 869 nM

Question: And the CC50 (SF-539)?
Answer: 17000 nM

Question: For Cn1cccc1/C=N/NC(=O)c1[nH]c2ccc(Br)cc2c1-c1ccccc1 [Derivative 3d, (E)-5-Bromo-N′-((1-methyl-1H-pyrrol-2-yl)methylene)-3-phenyl-1H-indole-2-carbohydrazide], which GI50 (MCF7; MCF7, MCF-7 breast cancer cells) is on record?
Answer: 72 nM

Question: What about the CC50 (MCF7; MCF7, breast cancer) of the same compound?
Answer: > 100000 nM

Question: And the “tubulin inhibition” value (porcine brain tubulin)?
Answer: weak tubulin inhibitors

Question: And the GI50 (MOLT-4)?
Answer: 438 nM

Question: What about the CC50 (MOLT-4) of the same compound?
Answer: > 100000 nM

Question: And the IC50 [1]?
Answer: 1000 ± 400 nM

Question: What about the GI50 (M14) of the same compound?
Answer: 324 nM

Question: And the CC50 (M14)?
Answer: > 100000 nM

Question: And the GI50 (U251)?
Answer: 477 nM

Question: And the CC50 (U251)?
Answer: > 100000 nM

Question: What about the GI50 (SF-539) of the same compound?
Answer: 217 nM

Question: And the CC50 (SF-539)?
Answer: > 100000 nM

Question: What about the L929 cell survival [3] of the same compound?
Answer: > 80%

Question: What about the “L929 toxicity at single concentration” value [3] of the same compound?
Answer: — ^c (No toxicity observed at 50 µM single concentration (>80% cell survival).)

Question: Which GI50 (MCF7; MCF7, breast cancer) does the source give for O=C(N/N=C/c1cc(Br)c[nH]1)c1[nH]c2ccc(Br)cc2c1-c1ccccc1 [Derivative 3e, (E)-5-Bromo-N′-((4-bromo-1H-pyrrol-2-yl)methylene)-3-phenyl-1H-indole-2-carbohydrazide] here?
Answer: 294 nM

Question: What about the CC50 (MCF7; MCF7, breast cancer) of the same compound?
Answer: 30700 nM

Question: And the “RFU in tubulin polymerization assay” value (porcine brain tubulin)?
Answer: ~50 arbitrary units

Question: What about the GI50 (MOLT-4) of the same compound?
Answer: 375 nM

Question: What about the CC50 (MOLT-4) of the same compound?
Answer: > 100000 nM

Question: What about the IC50 [1] of the same compound?
Answer: 2400 ± 1400 nM

Question: And the GI50 (M14)?
Answer: 270 nM

Question: And the CC50 (M14)?
Answer: 20200 nM

Question: And the GI50 (U251)?
Answer: 418 nM

Question: What about the CC50 (U251) of the same compound?
Answer: 10100 nM

Question: What about the GI50 (SF-539) of the same compound?
Answer: 214 nM

Question: What about the CC50 (SF-539) of the same compound?
Answer: 25500 nM

Question: And the IC50 at 48 h [2]?
Answer: 22300 ± 11900 nM

Question: What about the “Selectivity index (SI)” value [3] of the same compound?
Answer: 9.29

Question: For O=C(N/N=C/c1[nH]ccc1Cl)c1[nH]c2ccc(Br)cc2c1-c1ccccc1 [Derivative 3g, (E)-5-Bromo-N′-((3-chloro-1H-pyrrol-2-yl)methylene)-3-phenyl-1H-indole-2-carbohydrazide], which GI50 (MCF7; MCF7, breast cancer) is on record?
Answer: 376 nM

Question: What about the CC50 (MCF7; MCF7, breast cancer) of the same compound?
Answer: 42200 nM

Question: And the “tubulin inhibition” value (porcine brain tubulin)?
Answer: weak tubulin inhibitors

Question: And the GI50 (MOLT-4)?
Answer: 1710 nM

Question: And the CC50 (MOLT-4)?
Answer: > 100000 nM

Question: And the IC50 [1]?
Answer: 8200 ± 1800 nM

Question: What about the GI50 (M14) of the same compound?
Answer: 689 nM

Question: What about the CC50 (M14) of the same compound?
Answer: 45400 nM

Question: And the GI50 (U251)?
Answer: 630 nM

Question: What about the CC50 (U251) of the same compound?
Answer: 37700 nM

Question: And the GI50 (SF-539)?
Answer: 378 nM

Question: What about the CC50 (SF-539) of the same compound?
Answer: 18500 nM

Question: What about the IC50 at 48 h [2] of the same compound?
Answer: 20100 ± 10300 nM

Question: And the “Selectivity index (SI)” value [3]?
Answer: 2.45

Question: Which results are given for CCOC(=O)c1ccc(/C=N/NC(=O)c2[nH]c3ccc(Br)cc3c2-c2ccccc2)[nH]1 [Derivative 3i, Ethyl (E)-5-((2-(5-bromo-3-phenyl-1H-indole-2-carbonyl)hydrazono)methyl)-1H-pyrrole-2-carboxylate]?
Answer: GI50 (MCF7; MCF7, breast cancer): 1540 nM; CC50 (MCF7; MCF7, breast cancer): > 100000 nM; GI50 (MOLT-4): 2490 nM; CC50 (MOLT-4): > 100000 nM; IC50 [1]: 11800 ± 1400 nM; GI50 (M14): 2730 nM; CC50 (M14): 71900 nM; GI50 (U251): 2820 nM; CC50 (U251): 39400 nM; GI50 (SF-539): 1600 nM; CC50 (SF-539): 26200 nM; L929 cell survival [3]: > 80%; L929 toxicity at single concentration [3]: — ^c (No toxicity observed at 50 µM single concentration (>80% cell survival).)

— PMC12203311, “Design, synthesis, in silico and in vitro evaluation of pyrrole–indole hybrids as dual tubulin and aromatase inhibitors with potent anticancer activities” (RSC Advances, 2025)
